Values quoted from earlier work as cited in patent publication US20060052354A1, “Methods for treating migraine” (Corcept Therapeutics, Inc., priority 2002, published 2006).

Tests used:
[1] = in one study (Kawai)
[2] = biological target: T1, glucocorticoid (GR) receptors (Homo sapiens, UniProt P04150)
T1 sequence (P04150 1-777): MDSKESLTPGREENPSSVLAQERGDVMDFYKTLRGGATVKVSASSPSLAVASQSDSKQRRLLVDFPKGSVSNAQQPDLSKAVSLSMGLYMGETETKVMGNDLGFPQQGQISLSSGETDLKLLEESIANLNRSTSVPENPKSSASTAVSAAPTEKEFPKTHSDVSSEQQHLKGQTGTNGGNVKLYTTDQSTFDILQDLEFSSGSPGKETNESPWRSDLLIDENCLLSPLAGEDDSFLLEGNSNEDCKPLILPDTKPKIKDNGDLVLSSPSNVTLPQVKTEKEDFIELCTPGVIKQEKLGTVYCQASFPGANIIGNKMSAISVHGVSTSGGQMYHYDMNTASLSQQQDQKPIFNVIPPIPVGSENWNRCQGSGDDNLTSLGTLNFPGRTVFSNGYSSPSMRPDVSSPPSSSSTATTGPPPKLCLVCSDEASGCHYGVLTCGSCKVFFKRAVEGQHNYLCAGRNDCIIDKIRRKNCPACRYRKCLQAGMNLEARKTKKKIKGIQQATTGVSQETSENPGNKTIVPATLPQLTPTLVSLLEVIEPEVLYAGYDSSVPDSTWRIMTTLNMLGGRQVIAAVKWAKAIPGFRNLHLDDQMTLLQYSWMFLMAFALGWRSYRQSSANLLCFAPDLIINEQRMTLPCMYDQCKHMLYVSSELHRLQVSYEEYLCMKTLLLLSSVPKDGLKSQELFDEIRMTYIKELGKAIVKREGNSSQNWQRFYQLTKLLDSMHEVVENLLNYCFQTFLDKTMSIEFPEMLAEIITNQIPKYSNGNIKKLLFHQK

progesterone receptor = biological target: T2, progesterone receptor (Homo sapiens, UniProt P06401)
T2 sequence (P06401 1-933): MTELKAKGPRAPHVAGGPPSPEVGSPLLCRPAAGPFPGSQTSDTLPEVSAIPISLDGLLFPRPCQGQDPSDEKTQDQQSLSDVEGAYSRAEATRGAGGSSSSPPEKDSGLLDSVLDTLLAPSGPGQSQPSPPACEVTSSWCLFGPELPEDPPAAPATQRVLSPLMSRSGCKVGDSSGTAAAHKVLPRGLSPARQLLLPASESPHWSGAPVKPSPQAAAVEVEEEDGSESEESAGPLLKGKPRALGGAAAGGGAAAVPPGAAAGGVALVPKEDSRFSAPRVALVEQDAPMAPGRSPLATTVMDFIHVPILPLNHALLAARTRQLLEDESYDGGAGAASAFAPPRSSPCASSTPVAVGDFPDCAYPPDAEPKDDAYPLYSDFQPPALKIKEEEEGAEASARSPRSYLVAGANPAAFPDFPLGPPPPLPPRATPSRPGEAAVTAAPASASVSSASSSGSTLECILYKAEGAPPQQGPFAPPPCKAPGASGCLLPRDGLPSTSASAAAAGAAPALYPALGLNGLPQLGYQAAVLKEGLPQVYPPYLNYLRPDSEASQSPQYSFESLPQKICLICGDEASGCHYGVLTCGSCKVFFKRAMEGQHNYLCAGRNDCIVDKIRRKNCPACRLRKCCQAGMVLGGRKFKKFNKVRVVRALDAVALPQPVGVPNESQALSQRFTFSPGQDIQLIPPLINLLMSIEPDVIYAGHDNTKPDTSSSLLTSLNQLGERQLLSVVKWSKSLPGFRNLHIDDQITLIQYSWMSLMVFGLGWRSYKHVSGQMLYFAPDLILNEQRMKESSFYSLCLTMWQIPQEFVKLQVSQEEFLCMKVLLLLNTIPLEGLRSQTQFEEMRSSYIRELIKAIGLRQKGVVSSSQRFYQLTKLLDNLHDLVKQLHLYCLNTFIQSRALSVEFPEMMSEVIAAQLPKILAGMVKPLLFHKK

[3] = biological target: T3, Mineralocorticoid receptors (MRs) (Homo sapiens, UniProt P08235); conditions: MR versus GR
T3 sequence (P08235 1-984): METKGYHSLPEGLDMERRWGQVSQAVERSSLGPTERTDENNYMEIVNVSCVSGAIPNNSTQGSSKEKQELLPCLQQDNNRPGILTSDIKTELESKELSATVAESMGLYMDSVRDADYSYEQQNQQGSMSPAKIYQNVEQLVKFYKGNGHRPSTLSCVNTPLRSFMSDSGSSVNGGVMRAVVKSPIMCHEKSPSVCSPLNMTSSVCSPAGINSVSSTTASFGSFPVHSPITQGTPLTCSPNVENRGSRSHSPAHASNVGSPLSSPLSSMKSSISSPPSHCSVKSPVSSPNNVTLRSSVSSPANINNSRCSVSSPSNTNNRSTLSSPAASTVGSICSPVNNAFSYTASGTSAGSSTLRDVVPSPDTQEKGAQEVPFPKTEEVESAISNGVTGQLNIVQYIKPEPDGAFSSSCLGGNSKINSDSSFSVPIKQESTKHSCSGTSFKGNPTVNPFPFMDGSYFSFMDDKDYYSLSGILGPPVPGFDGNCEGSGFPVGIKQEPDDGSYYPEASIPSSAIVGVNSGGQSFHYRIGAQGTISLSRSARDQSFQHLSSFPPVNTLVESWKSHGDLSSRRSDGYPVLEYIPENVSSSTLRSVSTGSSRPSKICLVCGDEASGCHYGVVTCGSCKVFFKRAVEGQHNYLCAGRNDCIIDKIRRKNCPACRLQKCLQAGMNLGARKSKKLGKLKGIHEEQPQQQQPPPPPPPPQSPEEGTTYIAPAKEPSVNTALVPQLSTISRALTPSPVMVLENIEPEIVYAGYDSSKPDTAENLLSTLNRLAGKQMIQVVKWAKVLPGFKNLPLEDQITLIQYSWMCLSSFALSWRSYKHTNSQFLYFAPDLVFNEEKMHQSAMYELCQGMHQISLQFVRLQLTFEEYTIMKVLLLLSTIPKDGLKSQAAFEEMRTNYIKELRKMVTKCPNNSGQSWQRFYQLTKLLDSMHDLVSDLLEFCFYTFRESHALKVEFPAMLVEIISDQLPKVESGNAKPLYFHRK

| affinity of MRs for cortisol relative to GRs for glucocorticoids [3] | Structure (SMILES) | daily dose excreted in the urine [1] | antagonist of the glucocorticoid (GR) receptor [2] | antagonist of the progesterone receptor (progesterone receptor) |
| --- | --- | --- | --- | --- |
| – | CC#C[C@]1(O)CC[C@H]2[C@@H]3CCC4=CC(=O)CCC4=C3[C@@H](c3ccc(N(C)C)cc3)C[C@@]21C [Mifepristone, (11β,17β) 11 [4 (dimethylamino)phenyl]-17 hydroxy-17 (1 propynyl)estra-4,9 dien-3 one] | less than 0.5% | powerful antagonist | powerful antagonist |
| – | CC#C[C@]1(O)CC[C@H]2[C@@H]3CCC4=CC(=O)CCC4=C3[C@@H](c3ccc(OCCN(C)C)cc3)C[C@@]21C [RU009, 11β-(4-dimethylaminoethoxyphenyl)-17α-propynyl-17β-hydroxy-4,9-estradien-3-one] | – | GR antagonist effects | – |
| ten-fold | C[C@]12CCC(=O)C=C1CC[C@@H]1[C@@H]2[C@@H](O)C[C@@]2(C)[C@H]1CC[C@]2(O)C(=O)CO [cortisol] | – | – | – |
